The values below come from ChEMBL document CHEMBL5465560, “Selectivity Literature for EUbOPEN Chemogenomic Library” (2024).

Assay [1] addresses Inactive tyrosine-protein kinase PEAK1 (Homo sapiens) (UniProt Q9H792). In words: Selectivity interaction (Kinase panel (Z-LYTE Assay)) EUB0001632a PEAK1. The settings on record: at 10 µM.
The target in assay [2] is T1, Inhibitor of nuclear factor kappa-B kinase subunit beta (Homo sapiens) (UniProt O14920).
T1 sequence (whole entry): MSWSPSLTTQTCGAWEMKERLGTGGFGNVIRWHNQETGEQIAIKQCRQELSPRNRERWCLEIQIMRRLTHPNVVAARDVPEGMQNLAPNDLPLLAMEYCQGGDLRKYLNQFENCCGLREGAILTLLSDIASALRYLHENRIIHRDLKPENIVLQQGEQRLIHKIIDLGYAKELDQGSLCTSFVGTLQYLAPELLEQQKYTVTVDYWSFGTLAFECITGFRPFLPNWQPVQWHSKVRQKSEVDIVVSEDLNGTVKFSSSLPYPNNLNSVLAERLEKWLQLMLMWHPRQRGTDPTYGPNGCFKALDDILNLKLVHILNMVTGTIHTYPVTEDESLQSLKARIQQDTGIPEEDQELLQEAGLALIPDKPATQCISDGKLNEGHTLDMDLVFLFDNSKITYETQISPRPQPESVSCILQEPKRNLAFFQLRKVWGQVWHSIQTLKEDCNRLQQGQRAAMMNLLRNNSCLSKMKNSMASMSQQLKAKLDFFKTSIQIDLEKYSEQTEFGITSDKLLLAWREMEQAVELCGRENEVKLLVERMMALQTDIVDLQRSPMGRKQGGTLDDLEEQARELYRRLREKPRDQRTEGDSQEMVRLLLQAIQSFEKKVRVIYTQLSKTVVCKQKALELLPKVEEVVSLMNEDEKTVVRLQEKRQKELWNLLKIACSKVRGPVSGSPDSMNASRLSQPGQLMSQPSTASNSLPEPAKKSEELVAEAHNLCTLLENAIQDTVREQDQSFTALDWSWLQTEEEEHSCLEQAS
In words: Selectivity interaction (Kinase panel (KiNativ target engagement assay in Jurkat cells)) EUB0001635a IKBKB. The settings on record: Selectivity number of off-targets 0.0, Selectivity number of targets 233.0, Source Knowledge https://www.sciencedirect.com/science/article/pii/S2451945619300674?via%3Dihub, at 1 µM. Format: cell-based.

For assay [3], the target named is T2, Mitogen-activated protein kinase 12 (Homo sapiens) (UniProt P53778).
T2 sequence (whole entry): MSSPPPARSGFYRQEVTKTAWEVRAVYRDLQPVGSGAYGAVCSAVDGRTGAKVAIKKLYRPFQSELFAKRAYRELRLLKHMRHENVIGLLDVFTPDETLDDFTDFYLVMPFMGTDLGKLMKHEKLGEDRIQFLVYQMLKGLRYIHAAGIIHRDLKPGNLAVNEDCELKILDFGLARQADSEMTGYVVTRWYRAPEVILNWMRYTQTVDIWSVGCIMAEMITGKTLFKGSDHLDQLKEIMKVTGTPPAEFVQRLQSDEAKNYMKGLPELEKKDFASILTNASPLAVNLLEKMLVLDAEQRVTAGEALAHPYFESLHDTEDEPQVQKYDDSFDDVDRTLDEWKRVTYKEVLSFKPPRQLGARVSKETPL
Kind of assay: Selectivity interaction (Ambit KINOMEscan and KiNATiv profiling in Jurkat cells) EUB0000090b MAPK12. The format is cell-based. The note with it: at 1 µM.

Assay [4] addresses T3, Histone-lysine N-methyltransferase SETD7 (Homo sapiens) (UniProt Q8WTS6).
T3 sequence (whole entry): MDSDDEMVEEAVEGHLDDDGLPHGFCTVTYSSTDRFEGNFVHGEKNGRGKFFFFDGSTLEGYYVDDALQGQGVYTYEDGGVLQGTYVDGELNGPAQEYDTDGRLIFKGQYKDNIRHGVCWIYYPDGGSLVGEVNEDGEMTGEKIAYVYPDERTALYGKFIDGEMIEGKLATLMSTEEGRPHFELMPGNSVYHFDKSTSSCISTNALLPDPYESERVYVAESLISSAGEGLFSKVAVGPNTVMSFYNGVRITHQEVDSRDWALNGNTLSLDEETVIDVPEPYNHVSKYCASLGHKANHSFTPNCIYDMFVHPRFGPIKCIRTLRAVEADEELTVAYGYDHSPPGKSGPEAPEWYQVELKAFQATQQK
The note with it: at 1 µM.

In assay [5] the target is T4, Protein arginine N-methyltransferase 7 (Homo sapiens) (UniProt Q9NVM4).
T4 sequence (whole entry): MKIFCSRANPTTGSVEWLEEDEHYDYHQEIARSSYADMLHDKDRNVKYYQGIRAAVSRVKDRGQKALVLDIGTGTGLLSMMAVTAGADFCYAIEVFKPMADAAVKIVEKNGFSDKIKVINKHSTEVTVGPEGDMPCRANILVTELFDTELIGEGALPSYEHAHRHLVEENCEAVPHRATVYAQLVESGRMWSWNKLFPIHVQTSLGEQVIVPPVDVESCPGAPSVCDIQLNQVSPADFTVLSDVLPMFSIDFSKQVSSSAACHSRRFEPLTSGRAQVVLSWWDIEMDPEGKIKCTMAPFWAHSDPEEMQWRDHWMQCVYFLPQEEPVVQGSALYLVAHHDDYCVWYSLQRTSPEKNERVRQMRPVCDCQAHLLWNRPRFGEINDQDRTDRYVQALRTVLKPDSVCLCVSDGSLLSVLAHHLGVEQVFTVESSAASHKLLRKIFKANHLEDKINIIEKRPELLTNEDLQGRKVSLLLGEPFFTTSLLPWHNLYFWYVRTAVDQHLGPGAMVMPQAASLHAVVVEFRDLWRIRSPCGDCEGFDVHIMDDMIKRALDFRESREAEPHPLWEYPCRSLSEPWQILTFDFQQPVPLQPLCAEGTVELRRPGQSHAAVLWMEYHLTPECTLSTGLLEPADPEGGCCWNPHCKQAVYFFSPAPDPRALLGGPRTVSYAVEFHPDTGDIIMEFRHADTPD
The settings on record: at 10 µM.

Assay [6] has as its target Calcium/calmodulin-dependent protein kinase type II subunit beta (Homo sapiens) (UniProt Q13554). Kind of assay: Selectivity interaction (KinomeScan (DiscoverX)) EUB0000092b CAMK2B. The note with it: at 10 µM.

Structures are written as SMILES.

Sequence of Inactive tyrosine-protein kinase PEAK1 (Homo sapiens) (Q9H792 whole entry): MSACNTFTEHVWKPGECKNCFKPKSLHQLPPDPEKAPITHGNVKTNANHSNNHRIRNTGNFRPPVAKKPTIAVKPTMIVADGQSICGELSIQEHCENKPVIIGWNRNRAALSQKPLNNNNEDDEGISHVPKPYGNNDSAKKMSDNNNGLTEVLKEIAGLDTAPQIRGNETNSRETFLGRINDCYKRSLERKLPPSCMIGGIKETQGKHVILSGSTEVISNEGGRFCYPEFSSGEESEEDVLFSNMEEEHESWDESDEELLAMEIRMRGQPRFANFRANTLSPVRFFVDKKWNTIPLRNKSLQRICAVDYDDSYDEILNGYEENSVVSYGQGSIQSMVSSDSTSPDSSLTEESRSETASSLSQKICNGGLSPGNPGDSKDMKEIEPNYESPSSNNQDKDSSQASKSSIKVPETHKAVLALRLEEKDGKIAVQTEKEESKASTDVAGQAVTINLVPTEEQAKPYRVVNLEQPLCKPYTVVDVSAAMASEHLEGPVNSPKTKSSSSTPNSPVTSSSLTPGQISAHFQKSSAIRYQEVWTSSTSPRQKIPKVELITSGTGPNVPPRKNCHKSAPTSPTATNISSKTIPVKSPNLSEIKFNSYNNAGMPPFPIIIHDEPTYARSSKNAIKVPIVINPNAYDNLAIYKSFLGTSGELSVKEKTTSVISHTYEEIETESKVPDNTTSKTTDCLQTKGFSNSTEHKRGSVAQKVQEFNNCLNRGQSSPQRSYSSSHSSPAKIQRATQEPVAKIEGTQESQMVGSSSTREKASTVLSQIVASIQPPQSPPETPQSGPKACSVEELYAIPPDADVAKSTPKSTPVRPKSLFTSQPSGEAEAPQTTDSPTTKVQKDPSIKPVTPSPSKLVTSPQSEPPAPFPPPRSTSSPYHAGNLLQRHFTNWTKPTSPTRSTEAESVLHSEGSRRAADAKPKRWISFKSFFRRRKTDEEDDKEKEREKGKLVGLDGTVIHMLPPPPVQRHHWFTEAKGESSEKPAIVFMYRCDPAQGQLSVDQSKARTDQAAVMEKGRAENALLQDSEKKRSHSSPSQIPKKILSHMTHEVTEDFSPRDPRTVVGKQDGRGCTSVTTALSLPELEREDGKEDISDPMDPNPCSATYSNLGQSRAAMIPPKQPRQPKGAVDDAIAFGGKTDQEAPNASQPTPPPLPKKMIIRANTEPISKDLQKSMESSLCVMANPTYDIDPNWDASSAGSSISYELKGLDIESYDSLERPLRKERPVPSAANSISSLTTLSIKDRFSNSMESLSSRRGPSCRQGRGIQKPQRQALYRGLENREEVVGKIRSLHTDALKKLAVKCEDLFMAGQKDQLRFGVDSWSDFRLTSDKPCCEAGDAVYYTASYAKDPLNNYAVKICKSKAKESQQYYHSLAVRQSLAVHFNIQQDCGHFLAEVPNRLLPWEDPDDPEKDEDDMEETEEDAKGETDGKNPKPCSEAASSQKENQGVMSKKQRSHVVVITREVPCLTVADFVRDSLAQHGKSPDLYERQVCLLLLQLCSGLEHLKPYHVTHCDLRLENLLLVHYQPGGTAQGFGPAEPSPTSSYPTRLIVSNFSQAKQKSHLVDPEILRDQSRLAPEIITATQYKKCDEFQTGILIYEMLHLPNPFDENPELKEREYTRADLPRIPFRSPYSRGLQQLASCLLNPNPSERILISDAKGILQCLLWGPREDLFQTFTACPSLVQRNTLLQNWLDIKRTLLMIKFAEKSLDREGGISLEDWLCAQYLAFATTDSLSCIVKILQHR
Sequence of Calcium/calmodulin-dependent protein kinase type II subunit beta (Homo sapiens) (Q13554 whole entry): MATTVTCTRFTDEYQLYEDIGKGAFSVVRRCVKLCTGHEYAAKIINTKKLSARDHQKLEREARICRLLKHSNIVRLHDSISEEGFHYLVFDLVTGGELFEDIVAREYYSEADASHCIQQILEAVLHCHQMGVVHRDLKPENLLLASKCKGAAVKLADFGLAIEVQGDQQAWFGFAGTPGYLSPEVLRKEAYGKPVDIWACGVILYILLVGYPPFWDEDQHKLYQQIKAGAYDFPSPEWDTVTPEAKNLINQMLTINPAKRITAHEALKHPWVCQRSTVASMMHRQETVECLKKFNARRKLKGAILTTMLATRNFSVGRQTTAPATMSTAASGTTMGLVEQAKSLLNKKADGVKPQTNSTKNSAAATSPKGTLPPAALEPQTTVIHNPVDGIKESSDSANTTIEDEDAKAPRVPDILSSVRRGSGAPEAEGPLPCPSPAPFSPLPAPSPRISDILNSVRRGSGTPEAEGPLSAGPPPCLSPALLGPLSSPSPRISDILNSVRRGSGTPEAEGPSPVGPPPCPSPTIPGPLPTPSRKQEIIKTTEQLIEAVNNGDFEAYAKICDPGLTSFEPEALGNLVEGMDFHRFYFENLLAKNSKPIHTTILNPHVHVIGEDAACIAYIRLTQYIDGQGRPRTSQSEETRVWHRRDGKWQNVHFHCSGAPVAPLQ

The molecule `Cn1cc(-n2cnc3c(NCc4nc5cc(Cl)c(Cl)cc5[nH]4)nc(N4CCOCC4)nc32)cn1` displayed a % of control in assay [1] of 11.7%.
With `C=CC(=O)Nc1ccc(C(=O)Nc2[nH]nc3c2CN(C(=O)N[C@H](CN(C)C)c2ccccc2)C3(C)C)cc1`, the % of engagement in assay [2] was -20.2%.
For `CN(C)C/C=C/C(=O)Nc1ccc(C(=O)N2CCCC(Nc3ncc(Cl)c(-c4c[nH]c5ccccc45)n3)C2)cc1` (stereo unspecified), the % of control in assay [3] was found to be 78%.
As for `CNCCN1CCC(c2cc(CN(C)C(=O)c3cccc(Oc4ccccc4)c3)ccn2)CC1`, the % activity in assay [4] and in assay [5] was more than 90% in each case.
As to `CCC(=O)N1CCN(c2ccc(-n3c(=O)ccc4cnc5ccc(-c6cnc7ccccc7c6)cc5c43)cc2C(F)(F)F)CC1`, the % of control in assay [6] was 100%.
